Reference: patent publication US20160263131A1, “TREATMENT OF HEPATIC FIBROSIS USING AN INHIBITOR OF CBP/CATENIN” (priority 2013, published 2016)

What was measured:
Format in all cases: in vivo, C57BL/6J mice
NASH mice [1] = test: Liver hydroxyproline content in NASH mice; settings: μg per mg total protein, mean±SD, Vehicle 0.79±0.19, no significant difference
Procedure: To quantify liver hydroxyproline content, frozen liver samples (35-45 mg) were processed by an alkaline-acid hydrolysis method as follows: the livers were defatted with 100% acetone, dried in the air, dissolved in 2N NaOH at 65° C., and autoclaved at 121° C. for 20 minutes. The lysed samples (400 μL) were acid-hydrolyzed with 400 μL of 6N HCl at 121° C. for 20 minutes, and neutralized with 400 μL of 4N NaOH containing 10 mg/mL activated carbon. AC buffer (2.2M acetic acid/0.48M citric acid, 400 μL) was added to the samples, followed by centrifugation to collect the supernatant. To construct a standard curve of hydroxyproline, serial dilutions of trans-4-hydroxy-Lproline (Sigma-Aldrich) were prepared starting at 16 μg/mL. The prepared samples and standards (each 400 μL) were mixed with 400 μL chloramine T solution (Wako Pure Chemical Industries, Japan) and incubated for 25 minutes at room temperature. The samples were then mixed with Ehrlich's solution (400 μL) and heated at 65° C. for 20 minutes to develop the color. After samples were cooled on ice and centrifuged to remove precipitates, the optical density of each supernatant was measured at 560 nm. The concentrations of hydroxyproline were calculated from the hydroxyproline standard curve. Protein concentrations of liver samples were determined using a BCA protein assay kit (Thermo Fisher Scientific, USA) and used to normalize the calculated hydroxyproline values. Hydroxyproline levels were expressed as μg per mg total protein.

TIMP-1 = test: Quantitative RT-PCR of liver, TIMP-1 mRNA, NASH mice; settings: 13 weeks of age, mean ± SD, n = 8, Vehicle 7.74 ± 4.15, no significant difference
Procedure: Total RNA was extracted from liver samples using RNAiso (Takara Bio, Japan) according to the manufacturer's instructions. One μg of RNA was reverse-transcribed using a reaction mixture containing 4.4 mM MgCl2 (Roche, Switzerland), 40 U RNase inhibitor (Toyobo, Japan), 0.5 mM dNTP (Promega, USA), 6.28 μM random hexamer (Promega), 5× first strand buffer (Promega), 10 mM dithiothreitol (Invitrogen, USA) and 200 U MMLV-RT (Invitrogen) in a final volume of 20 μL. The reaction was carried out for 1 hour at 37° C., followed by 5 minutes at 99° C. Real-time PCR was performed using real-time PCR DICE and SYBR premix Taq (Takara Bio). To calculate the relative mRNA expression level, the expression of each gene was normalized to that of reference gene 36B4 (gene symbol: Rplp0). Information of PCR-primer sets and the plate layout was described in Table 1.

NASH mice [2] = test: Whole blood glucose in NASH mice; settings: mean±SD
Procedure: (§1) Non-fasting blood glucose was measured in whole blood using Life Check (EIDIA, Japan). For serum biochemistry, blood was collected in polypropylene tubes without anticoagulant and kept at room temperature for 30 minutes, followed by at 4° C. for 1 hour. The blood samples were then centrifuged at 1,000×g for 15 minutes at 4° C. The supernatant was collected and stored at −80° C. until use. Serum ALT and TG levels were measured by FUJI DRI-CHEM 7000 (Fujifilm, Japan).

NASH mice [3] = test: Sirius red staining, fibrosis area in liver of NASH mice; settings: for Sirius red-positive area (fibrosis area): NASH mice, 13 weeks of age, mean ± SD, n = 8, Vehicle 1.02 ± 0.33
Procedure: C57BL/6J mice (15-day pregnant female) were obtained from Charles River Laboratories Japan (Kanagawa, Japan). All animals used in this study were housed and cared for in accordance with the Japanese Pharmacological Society Guidelines for Animal Use. The animals were maintained in a SPF facility under controlled conditions of temperature (23±2° C.), humidity (45±10%), lighting (12-hour artificial light and dark cycles; light from 8:00 to 20:00) and air exchange. A high pressure (20±4 Pa) was maintained in the experimental room to prevent contamination of the facility. The animals were housed in polycarbonate cages KN-600 (Natsume Seisakusho, Japan) with a maximum of 4 mice per cage. Sterilized PULMASμ (Material Research Center, Japan) was used for bedding and replaced once a week. Sterilized solid HFD was provided ad libitum, being placed in the metal lid on top of the cage. Pure water was provided ad libitum from a water bottle equipped with a rubber stopper and a sipper tube. Water bottles were replaced once a week, cleaned and sterilized in autoclave and reused. Mice were identified by numbers engraved on earrings. Each cage was labeled with a specific identification code.

NASH mice [4] = test: Liver weight and liver-to-body weight ratio in NASH mice; settings: mean±SD; for Liver-to-body weight ratio: Vehicle 8.1±1.1, no significant difference; for Mean liver weight: Vehicle 1870±418, no significant difference
Procedure: The viability, clinical signs and behavior were monitored daily. Body weight was recorded daily before drug administration. […] The animals were sacrificed by exsanguination through direct cardiac puncture under ether anesthesia (Wako Pure Chemical Industries).

NASH mice [5] = test: Serum ALT in NASH mice; settings: mean±SD, Vehicle 58±29, no significant difference
Procedure: as §1

NASH mice [6] = test: Serum TG in NASH mice; settings: mean±SD
Procedure: as §1

NASH mice [7] = test: Liver TG content in NASH mice; settings: mean±SD, Vehicle 58.8±26.9, no significant difference
Procedure: Liver total lipid-extracts were obtained from right lobes by Folch's method (Folch J. et al, J. Biol. Chem. 1957; 226 (1): 497). The livers were homogenized in chloroform-methanol (2:1, v/v) and incubated overnight at room temperature. After washing with chloroform-methanol-water (8:4:3, v/v/v), the extracts were evaporated to dryness, and dissolved in isopropanol. Liver TG levels were measured by Triglyceride E-test (Wako Pure Chemical Industries). Extracts were diluted 2- to 4-fold in isopropanol when the TG contents exceed the limit of detection.

[8] = high dose 3 mg/kg/day s.c. infusion 9-13 wks
[9] = low dose 1 mg/kg/day s.c. infusion 9-13 wks

C[C@H]1[C@H]2N(C(=O)CN(C)N2C(=O)NCc2ccccc2)[C@@H](Cc2ccc(OP(=O)(O)O)cc2)C(=O)N1Cc1cccc2cccnc12 [Compound A, 4-(((6S,9S,9aS)-1-(benzylcarbamoyl)-2,9-dimethyl-4,7-dioxo-8-(quinolin-8-ylmethyl)octahydro-1H-pyrazino[2,1-c][1,2,4]triazin-6-yl)methyl)phenyl dihydrogen phosphate]
Liver hydroxyproline content (NASH mice [1]; [8]): 0.95 ± 0.22 µg/mg
Liver hydroxyproline content (NASH mice [1]; [9]): 0.90 ± 0.26 µg/mg
TIMP-1 mRNA expression level (relative, normalized to 36B4) (TIMP-1; high dose 3 mg/kg/day s.c. infusion 9-13 wks, 3 mg/kg/day): 6.73±2.23
TIMP-1 mRNA expression level (relative, normalized to 36B4) (TIMP-1; low dose 1 mg/kg/day s.c. infusion 9-13 wks, 1 mg/kg/day): 5.35±2.82
Whole blood glucose (non-fasting) (NASH mice [2]; high dose 3 mg/kg/day s.c. infusion 9-13 wks, Vehicle 605±134, tended to increase): 791 ± 54 mg/dL
Whole blood glucose (non-fasting) (NASH mice [2]; low dose 1 mg/kg/day s.c. infusion 9-13 wks, Vehicle 605±134, no significant difference): 677 ± 36 mg/dL
Sirius red-positive area (fibrosis area) (NASH mice [3]; high dose 3 mg/kg/day continuous s.c. infusion 9-13 wks, significantly decreased, 3 mg/kg/day): 0.67±0.21%
Sirius red-positive area (fibrosis area) (NASH mice [3]; low dose 1 mg/kg/day continuous s.c. infusion 9-13 wks, no significant difference, 1 mg/kg/day): 0.82±0.31%
Fibrosis (FIG. 1 legend) (NASH mice [3]; NASH rat model as printed in the legend, FIG. 1 shows high-dose 3 mg/kg/day versus Vehicle): reduces fibrosis
Liver-to-body weight ratio (NASH mice [4]; [8]): 8.5±0.6%
Mean liver weight (NASH mice [4]; [8]): 2024 ± 159 mg
Liver-to-body weight ratio (NASH mice [4]; [9]): 8.0±0.8%
Mean liver weight (NASH mice [4]; [9]): 1803 ± 219 mg
Serum ALT (NASH mice [5]; [8]): 49±17 U/L
Serum ALT (NASH mice [5]; [9]): 45±17 U/L
Serum TG (NASH mice [6]; high dose 3 mg/kg/day s.c. infusion 9-13 wks, Vehicle 391±175, increased): 1145 ± 580 mg/dL
Serum TG (NASH mice [6]; low dose 1 mg/kg/day s.c. infusion 9-13 wks, Vehicle 391±175, no significant difference): 815 ± 754 mg/dL
Liver TG content (NASH mice [7]; [8]): 67.8 ± 24.0 mg/g
Liver TG content (NASH mice [7]; [9]): 64.8 ± 25.6 mg/g
